In EPA's ToxValDB 9.5 (doi:10.2903/j.efsa.2006.62r):
≈ marks a conversion by molar mass, not a printed value.

Key:
Aphidius rhopalosiphi = experiment: LR50; higher = less toxic; conditions: not reported; mortality
Hypoaspis aculeifer = conditions: chronic/long-term; duration: 14 days; mortality
Folsomia candida = conditions: chronic/long-term; reproduction
Lepomis macrochirus = conditions: acute; duration: 96 hours; mortality
Oryctolagus sp. = conditions: developmental; development
Canidae = conditions: oral, Dog Other, neurology
Rattus norvegicus = conditions: acute; M; mortality
Oncorhynchus mykiss = conditions: chronic/long-term; duration: 91 days; development
Apis mellifera = conditions: acute, mortality
Daphnia magna = conditions: chronic/long-term; growth
Bibionidae = conditions: chronic/long-term; other

SMILES	LR50 (Aphidius rhopalosiphi) [g/ha]	NOEC (Hypoaspis aculeifer) [mg/kg]	NOEC (Folsomia candida) [mg/kg]	LC50 (Lepomis macrochirus) [ng/mL]	NOAEL (Oryctolagus sp.) [mg/kg-day]	NOAEL (Canidae; acute) [mg/kg-day]	NOAEL (Canidae; chronic, duration: 1 years) [mg/kg-day]	LC50 (Tagia sp.; acute, duration: 14 days, mortality) [mg/kg]	NOEC (Tagia sp.; chronic/long-term, duration: 8 weeks, reproduction) [g/ha]	LD50 (Rattus norvegicus) [mg/kg]	NOEC (Oncorhynchus mykiss) [mg/L]	LEL (Colinus virginianus; acute, oral, M) [mg/kg-day]	NOEC (Colinus virginianus; reproduction developmental, M/F) [mg/kg-day]	LEC (Colinus virginianus; short-term, oral, diet) [mg/kg-day]	LD50 (Apis mellifera; duration: 48 hours, dermal) [µg/piece]	LD50 (Apis mellifera; oral, unspecified) [µg/piece]	NOEC (Daphnia magna) [mg/L]	NOEC (Bibionidae) [mg/L]
CCOP(=O)(NC(C)C)Oc1ccc(SC)c(C)c1 (stereo not given) [Fenamiphos]	0.175	1.33	0.313	9.3 (≈ 0.0307 µM)	0.3	0.25	0.083	888	< 6000	6	0.0038	0.8	0.2	6	0.28	0.45	0.00012	–
CCOP(=O)(NC(C)C)Oc1ccc(S(C)(=O)=O)c(C)c1 (stereo not given) [Fenamiphos sulfone]	–	–	3.75	–	–	–	–	–	–	–	–	–	–	–	–	–	–	–
CCOP(=O)(NC(C)C)Oc1ccc(S(C)=O)c(C)c1 (stereo not given) [Fenamiphos sulfoxide]	–	–	2	–	–	–	–	–	–	–	–	–	–	–	–	–	–	0.058
